One assay relates to EGFR-Del19/T790M/C797S. Put plainly: EGFR degradation HTRF assay in H1975-clone #28 cells. It counts as cell-based. The note with it: H1975-clone #28 (Del19/T790M/C797S) cells, 16 h treatment; for DC50: IC50 (DC50), read-out: DC50(nM) H1975 # 28 DTC; for Dmax (%) H1975 # 28 DTC: maximum percentage of inhibition (degradation). As to the method: (§1) H1975-clone #28(Del19/T790M/C797S) and H1975-clone #25(L858R/T790M/C797S). EGFR-Del19/T790M/C797S and EGFR-L858R/T790M/C797S were stably expressed in H1975 cell lines by lentivirus-mediated over-expression, respectively. The EGFR over-expressed cells then underwent knockout, in which the EGFR targeting sgRNA was designed to only target the endogenous EGFR copies and preserve the exogenous EGFR copies. Followed by knockout, the edited H1975 cells were seeded in 96 well plates at the concentration of […], cultured for about 2 weeks to allow single clones formation. The formed clones were screened by DNA sequencing and whole exon sequencing analysis for the desired edition.
(§2) H1975-clone #28, and H1975-clone #25 were finally confirmed as homozygous Del19/T790M/C797S EGFR, and L858R/T790M/C797S EGFR clones, respectively.
(§3) H1975-#25 and H1975-#28 cells are treated with compounds diluted in 0.2% DMSO cell culture medium on day 2, incubate for 16 h, 37° C., 5% CO2. the final concentration of compounds in all assay is start with 10 uM, 5-fold dilution, total 8 doses were included.
(§4) After 16 h treatment, add HTRF lysis buffer to each well; seal the plate and incubate 1 hour at room temperature on a plate shaker; Once the cells are lysed, 16 μL of cell lysate are transferred to a PE 384-well HTRF detection plate; 4 μL of pre-mixed HTRF antibodies are added to each well; Cover the plate with a plate sealer, spin 1000 rpm for 1 min, Incubate overnight at room temperature; Read on BMG PheraStar with HTRF protocol (337 nm-665 nm-620 nm).
(§5) The inhibition (degradation) percentage of the compound was calculated by the following equation:
(§6) Inhibition percentage of Compound=100−100×(Signal−low control)/(High control−low control),
(§7) The IC50 (DC50) value of a compound can be obtained by fitting the following equation
(§8) Wherein, X and Y are known values, and IC50, Hillslope, Top and Bottom are the parameters obtained by fitting with software. Y is the inhibition percentage (calculated from the equation), X is the concentration of the compound; IC50 is the concentration of the compound when the 50% inhibition is reached. The smaller the IC50 value is, the stronger the inhibitory ability of the compound is. Vice versa, the higher the IC50 value is, the weaker the ability the inhibitory ability of the compound is; Hillslope represents the slope of the fitted curve, generally around 1 *; Bottom represents the minimum value of the curve obtained by data fitting, which is generally 0%±20%; Top represents the maximum value of the curve obtained by data fitting, which is generally 100%±20%. The experimental data were fitted by calculating and analyzing with Dotmatics data analysis software.
Background: Time-resolved FRET reads energy transfer from a long-lived donor to a nearby acceptor.

The target of a further assay is T1, EGFR-L858R/T790M/C797S (Homo sapiens, UniProt P00533, C797S/L858R/T790M).
T1 construct: expressed in transfected cells; host or cells: H1975-clone #25 (lentiviral over-expression, endogenous EGFR knocked out)
As to the kind of experiment: EGFR degradation HTRF assay in H1975-clone #25 cells. It counts as cell-based. The note with it: 16 h treatment; for DC50: H1975-clone #25 (L858R/T790M/C797S) cells, IC50 (DC50), read-out: DC50(nM) H1975 # 25-LTC; for Dmax: NCI-H1975, H1975-clone #25 (L858R/T790M/C797S) cells, maximum percentage of inhibition (degradation), read-out: Dmax (%) H1975 # 25-LTC. The procedure:
as §1, §2, §3, §4, §5, §6, §7, §8

Data on 16 molecules can be found in patent US20240368203A1, “DEGRADATION OF (EGFR) BY CONJUGATION OF EGFR INHIBITORS WITH E3 LIGASE LIGAND AND METHODS OF USE” (BeiGene, Ltd., priority 2022, published 2024).

T1 sequence (P00533 25-1210 T790M/C797S/L858R): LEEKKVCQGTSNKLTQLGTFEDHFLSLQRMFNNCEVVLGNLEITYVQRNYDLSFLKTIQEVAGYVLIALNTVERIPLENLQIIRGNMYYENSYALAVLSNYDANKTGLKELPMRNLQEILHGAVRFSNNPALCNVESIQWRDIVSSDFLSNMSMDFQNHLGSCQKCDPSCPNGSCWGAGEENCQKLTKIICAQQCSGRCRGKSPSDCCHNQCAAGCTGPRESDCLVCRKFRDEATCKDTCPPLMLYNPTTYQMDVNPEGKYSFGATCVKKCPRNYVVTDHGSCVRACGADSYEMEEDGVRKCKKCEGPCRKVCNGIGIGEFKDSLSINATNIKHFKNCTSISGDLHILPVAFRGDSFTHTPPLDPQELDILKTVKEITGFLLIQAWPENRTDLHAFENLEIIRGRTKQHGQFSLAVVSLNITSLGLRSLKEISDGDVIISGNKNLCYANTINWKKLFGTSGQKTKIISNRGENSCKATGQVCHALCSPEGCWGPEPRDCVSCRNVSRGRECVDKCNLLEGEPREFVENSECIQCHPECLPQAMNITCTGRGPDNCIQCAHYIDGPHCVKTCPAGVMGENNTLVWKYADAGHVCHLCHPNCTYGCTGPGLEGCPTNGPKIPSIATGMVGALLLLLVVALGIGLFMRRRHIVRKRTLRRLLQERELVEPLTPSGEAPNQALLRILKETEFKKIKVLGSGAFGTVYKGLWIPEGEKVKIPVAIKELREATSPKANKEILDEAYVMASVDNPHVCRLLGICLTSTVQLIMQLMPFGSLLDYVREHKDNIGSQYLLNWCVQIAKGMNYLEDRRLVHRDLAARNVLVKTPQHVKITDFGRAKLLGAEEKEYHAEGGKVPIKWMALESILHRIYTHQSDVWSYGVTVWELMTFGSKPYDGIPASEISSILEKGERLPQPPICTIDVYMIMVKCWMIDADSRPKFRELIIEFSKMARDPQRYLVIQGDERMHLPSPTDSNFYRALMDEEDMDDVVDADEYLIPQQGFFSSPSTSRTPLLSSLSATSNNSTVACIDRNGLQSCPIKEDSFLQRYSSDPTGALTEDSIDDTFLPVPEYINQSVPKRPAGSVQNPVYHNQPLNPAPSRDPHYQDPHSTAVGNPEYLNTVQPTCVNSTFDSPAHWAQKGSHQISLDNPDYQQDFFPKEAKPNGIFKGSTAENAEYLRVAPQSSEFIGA

Consider `CCc1ncc2c(P(C)(C)=O)c(Nc3nc(Nc4cc(CC)c(N5CCC(N6CCC7(CCN(c8cc(F)c([C@H]9CCC(=O)NC9=O)c(F)c8)CC7)CC6)CC5)cc4OC)ncc3Br)ccc2n1` (single isomer, unassigned) [Example 4], for which, in the assay on EGFR-Del19/T790M/C797S, the DC50 amounted to 1.5 nM and the “Dmax (%) H1975 # 28 DTC” value is 87%. In addition, at EGFR-L858R/T790M/C797S, the half-maximal degradation concentration (DC50) was determined as 2.5 nM and the greatest degradation seen (Dmax) came to 84%.

Consider `CCc1cc(Nc2ncc(Br)c(Nc3ccc4nc(C)c(F)cc4c3P(C)(C)=O)n2)c(OC)cc1N1CCC2(CC1)CCN(C1CC(c3cc(F)c([C@H]4CCC(=O)NC4=O)c(F)c3)C1)CC2` (single isomer, unassigned) [Example 5], for which, in the assay with EGFR-Del19/T790M/C797S, the DC50 is 3.1 nM and the “Dmax (%) H1975 # 28 DTC” value was 90%. For the same molecule, at EGFR-L858R/T790M/C797S, the DC50 was found to be 3.7 nM and the Dmax is 92%.

In the case of `CCc1ncc2c(P(C)(C)=O)c(Nc3nc(Nc4cc(CC)c(N5CCC(N6CCN(C7CN(c8cc(F)c([C@H]9CCC(=O)NC9=O)c(F)c8)C7)CC6)CC5)cc4OC)ncc3Br)ccc2n1` (single isomer, unassigned) [Example 7], in the assay on EGFR-Del19/T790M/C797S, the DC50 was 2.7 nM and the “Dmax (%) H1975 # 28 DTC” value is given as 86%. At EGFR-L858R/T790M/C797S, the DC50 was determined as 2.9 nM and the Dmax stood at 76%.

As for `CCc1ncc2c(P(C)(C)=O)c(Nc3nc(Nc4cc(CC)c(N5CCC(N6CCN([C@H]7CCN(c8cc(F)c([C@H]9CCC(=O)NC9=O)c(F)c8)C7)CC6)CC5)cc4OC)ncc3Br)ccc2n1` (single isomer, unassigned) [Example 9], in the assay with EGFR-Del19/T790M/C797S, the DC50 amounted to 1.3 nM and the “Dmax (%) H1975 # 28 DTC” value is 86%. Besides, at EGFR-L858R/T790M/C797S, the DC50 stood at 3.8 nM and the greatest degradation seen (Dmax) turned out to be 86%.

In the case of `CCc1ccc2c(P(C)(C)=O)c(Nc3nc(Nc4cc(CC)c(N5CCC(N6CCN(C7CCN(c8cc(F)c([C@H]9CCC(=O)NC9=O)c(F)c8)CC7)CC6)CC5)cc4OC)ncc3Br)ccc2n1` (single isomer, unassigned) [Example 10], in the assay on EGFR-Del19/T790M/C797S, the half-maximal degradation concentration (DC50) worked out at 2.7 nM and the “Dmax (%) H1975 # 28 DTC” value stood at 88%. Also, on EGFR-L858R/T790M/C797S, the 50% degradation concentration (DC50) was 4.9 nM and the Dmax was 91%.

On to `CCc1ccc2c(P(C)(C)=O)c(Nc3nc(Nc4cc(CC)c(N5CCC(N6CCC(N7CCN(c8cc(F)c([C@H]9CCC(=O)NC9=O)c(F)c8)CC7)CC6)CC5)cc4OC)ncc3Br)ccc2n1` (single isomer, unassigned) [Example 11], for which, in the assay on EGFR-Del19/T790M/C797S, the DC50 came to 1.8 nM and the “Dmax (%) H1975 # 28 DTC” value amounted to 88%. Further, at EGFR-L858R/T790M/C797S, the DC50 was 0.9 nM and the Dmax is 94%.

As to `CCc1cc(Nc2ncc(Br)c(Nc3ccc4nc(C)c(F)cc4c3P(C)(C)=O)n2)c(OC)cc1N1CCC(N2CC(N3CCN(c4cc(F)c([C@H]5CCC(=O)NC5=O)c(F)c4)CC3)C2)CC1` (single isomer, unassigned) [Example 16], in the assay with EGFR-Del19/T790M/C797S, the DC50 was found to be 2.8 nM and the “Dmax (%) H1975 # 28 DTC” value amounted to 88%. Besides, on EGFR-L858R/T790M/C797S, the 50% degradation concentration (DC50) stood at 1.1 nM and the Dmax was 85%.

On to `CCc1cc(Nc2ncc(Br)c(Nc3ccc4nc(C)c(F)cc4c3P(C)(C)=O)n2)c(OC)cc1N1CCC(N2CC3(CCN(c4cc(F)c([C@H]5CCC(=O)NC5=O)c(F)c4)CC3)C2)CC1` (single isomer, unassigned) [Example 18], for which, in the assay on EGFR-Del19/T790M/C797S, the DC50 is 1.7 nM and the “Dmax (%) H1975 # 28 DTC” value was determined as 91%. On EGFR-L858R/T790M/C797S, the DC50 came out at 1.7 nM and the Dmax is 92%.

In the case of `CCOc1cc(N2CCC(N3CCC4(CC3)CN(c3cc(F)c([C@H]5CCC(=O)NC5=O)c(F)c3)C4)CC2)c(CC)cc1Nc1ncc(Br)c(Nc2ccc3nc(CC)ncc3c2P(C)(C)=O)n1` (single isomer, unassigned) [Example 19], in the assay with EGFR-Del19/T790M/C797S, the DC50 was 1.1 nM and the “Dmax (%) H1975 # 28 DTC” value turned out to be 91%. Moreover, on EGFR-L858R/T790M/C797S, the DC50 amounted to 1.9 nM and the maximal degradation (Dmax) was 93%.

In the case of `CCc1ncc2c(P(C)(C)=O)c(Nc3nc(Nc4cc(CC)c(N5CCC(N6CC7(CCN(c8cc(F)c([C@H]9CCC(=O)NC9=O)c(F)c8)CC7)C6)CC5)cc4OC)ncc3Br)ccc2n1` (single isomer, unassigned) [Example 20], in the assay with EGFR-Del19/T790M/C797S, the DC50 came out at 2.9 nM and the “Dmax (%) H1975 # 28 DTC” value is given as 90%. At EGFR-L858R/T790M/C797S, the 50% degradation concentration (DC50) is 1.4 nM and the Dmax turned out to be 92%.

In the case of `CCc1ccc2c(P(C)(C)=O)c(Nc3nc(Nc4cc(CC)c(N5CCC(N6CC7(CN(c8cc(F)c([C@H]9CCC(=O)NC9=O)c(F)c8)C7)C6)CC5)cc4OC)ncc3Br)ccc2n1` (single isomer, unassigned) [Example 27], in the assay with EGFR-Del19/T790M/C797S, the 50% degradation concentration (DC50) was found to be 1.3 nM and the “Dmax (%) H1975 # 28 DTC” value is on record as 91%. Moreover, on EGFR-L858R/T790M/C797S, the DC50 worked out at 2.4 nM and the maximal degradation (Dmax) stood at 92%.

As for `CCc1cc(Nc2ncc(Br)c(Nc3ccc4nc(C)c(F)cc4c3P(C)(C)=O)n2)c(OC)cc1N1CCC2(CCN(C(=O)CN3CCC(c4ccc(NC5CCC(=O)NC5=O)cc4)CC3)CC2)CC1` (single isomer, unassigned) [Example 29, 3-((4-(1-(2-(9-(4-((5-bromo-4-((5-(dimethylphosphoryl)-3-fluoro-2-methylquinolin-6-yl)amino)pyrimidin-2-yl)amino)-2-ethyl-5-methoxyphenyl)-3,9-diazaspiro[5.5]undecan-3-yl)-2-oxoethyl)piperidin-4-yl)phenyl)amino)piperidine-2,6-dione], in the assay on EGFR-Del19/T790M/C797S, the half-maximal degradation concentration (DC50) turned out to be 3.1 nM and the “Dmax (%) H1975 # 28 DTC” value came to 88%. Also, on EGFR-L858R/T790M/C797S, the 50% degradation concentration (DC50) is 3.8 nM and the greatest degradation seen (Dmax) was found to be 96%.

For `CCc1ccc2c(P(C)(C)=O)c(Nc3nc(Nc4cc(CC)c(N5CCC(N6CCC(N7CC(c8cc(F)c([C@H]9CCC(=O)NC9=O)c(F)c8)C7)CC6)CC5)cc4OC)ncc3Br)ccc2n1` (single isomer, unassigned) [Example 30], in the assay with EGFR-Del19/T790M/C797S, the 50% degradation concentration (DC50) turned out to be 13.3 nM and the “Dmax (%) H1975 # 28 DTC” value is recorded as 87%. Further, at EGFR-L858R/T790M/C797S, the DC50 was found to be 10.8 nM and the Dmax came to 89%.

As to `CCc1cc(Nc2ncc(Br)c(Nc3ccc4nc(C)c(F)cc4c3P(C)(C)=O)n2)c(OC)cc1N1CCC2(CCN(CCNc3cc(F)c([C@H]4CCC(=O)NC4=O)c(F)c3)CC2)CC1` (single isomer, unassigned) [Example 43], in the assay on EGFR-Del19/T790M/C797S, the DC50 stood at 3.7 nM and the “Dmax (%) H1975 # 28 DTC” value was 87%. On EGFR-L858R/T790M/C797S, the half-maximal degradation concentration (DC50) is 4.6 nM and the Dmax came to 90%.

For `CCc1cc(Nc2ncc(Br)c(Nc3ccc4nc(C)c(F)cc4c3P(C)(C)=O)n2)c(OC)cc1N1CCC2(CC1)CCN(C1CCN(c3cc(F)c([C@H]4CCC(=O)NC4=O)c(F)c3)CC1)CC2` [Example 1, (R)-3-(4-(4-(9-(4-((5-bromo-4-((5-(dimethylphosphoryl)-3-fluoro-2-methylquinolin-6-yl)amino)pyrimidin-2-yl)amino)-2-ethyl-5-methoxyphenyl)-3,9-diazaspiro[5.5]undecan-3-yl)piperidin-1-yl)-2,6-difluorophenyl)piperidine-2,6-dione], in the assay on EGFR-Del19/T790M/C797S, the half-maximal degradation concentration (DC50) amounted to 2.2 nM and the “Dmax (%) H1975 # 28 DTC” value was 89%. Further, on EGFR-L858R/T790M/C797S, the DC50 is 3.4 nM and the Dmax was 92%.

`CCc1cc(Nc2ncc(Cl)c(Nc3ccc4nc(C)c(F)cc4c3P(C)(C)=O)n2)c(OC)cc1N1CCC2(CC1)CCN(C1CCN(c3cc(F)c([C@H]4CCC(=O)NC4=O)c(F)c3)CC1)CC2` [Example 2, (R)-3-(4-(4-(9-(4-((5-chloro-4-((5-(dimethylphosphoryl)-3-fluoro-2-methylquinolin-6-yl)amino)pyrimidin-2-yl)amino)-2-ethyl-5-methoxyphenyl)-3,9-diazaspiro[5.5]undecan-3-yl)piperidin-1-yl)-2,6-difluorophenyl)piperidine-2,6-dione]: in the assay on EGFR-Del19/T790M/C797S, the DC50 is 3.5 nM and the “Dmax (%) H1975 # 28 DTC” value stood at 89%. Besides, on EGFR-L858R/T790M/C797S, the DC50 was 3.4 nM and the greatest degradation seen (Dmax) amounted to 92%.

In general, DC50 refers to the concentration giving 50% degradation. The Dmax is the greatest extent of degradation seen.
